Experimental data as given in patent publication US11542508B2, “Isolated polynucleotides and polypeptides and methods of using same for expressing an expression product of interest” (priority 2016, dated 2023).
Entries after “also recorded” stand apart in the source; their conditions may differ.

Assays:
[1] = tested on: phi3T; assay: Growth dynamics of phage-infected cultures (phi3T infection of B. subtilis 168); type: cell-based; settings: B. subtilis 168 infected by phi3T at MOI=0.1, LB supplemented with synthesized peptide
Description: Specifically, overnight cultures of B. subtilis strain 168 were diluted 1:50 in LB media supplemented with 0.1 mM MnCl2 and 5 mM MgCl2, and incubated at 37° C. with shaking until reaching optical density (O.D) 600 nm=0.5. Phages (phi29, phi105, rho14 or phi3T) were added to the bacterial culture at MOI=1 and incubated for 3 hours. The media were centrifuged at 4000 rpm for 10 minutes at 4° C. and the supernatant was filtered with 0.2 μm filer (GE Healthcare Life Sciences, Whatman, CAT #10462200). Phages and large molecules were further filtered out from the media by using Amicon Ultra centrifugal filters at a cutoff of 3,000 NMWL (3 kDa) (Milipore, CAT #UFC900324). A plaque assay was performed in order to verify that no phages were left in the medium.
7.5 mg (per reaction) of Proteinase K-Agarose from Tritirachium album (Sigma, CAT #P9290) were washed twice with 750 μl of sterile water and then resuspended with 750 μl of LB supplemented with 0.1 mM MnCl2 and 5 mM MgCl2. Following, the tubes were centrifuged again and the supernatant was discarded. 1.5 ml of phi3T-derived conditioned medium or control medium was added to a tube containing the washed proteinase K. The media were incubated for 2 hours at 37° C. with the proteinase K. The media were centrifuged and the supernatants were collected for the infection assay.
(§1) Overnight cultures of bacteria were diluted 1:100 in LB media and incubated at 37° C. with shaking until reaching O.D 600 nm=0.1. The bacterial culture was centrifuged at 4000 rpm for 10 minutes at room temperature. The supernatant was discarded and the pellet was resuspended in LB medium supplemented with 0.1 mM MnCl2 and 5 mM MgCl2 at 10% of the initial volume. The concentrated bacterial culture was added to conditioned medium or medium supplemented with synthesized arbitrium peptide in a ratio of 1:9 (bacteria to medium) and incubated for 1 hour at room temperature. Following, the culture was infected with phages at MOI=0.1. Optical density measurements at a wavelength of 600 nm were taken using a TECAN Infinite 200 plate reader in a 96-wells plate.

[2] = tested on: spBeta; assay: Growth dynamics of phage-infected cultures (spBeta infection of B. subtilis BEST7003); type: cell-based; settings: B. subtilis BEST7003 infected by spBeta at MOI=0.1, LB supplemented with synthesized peptide
Description: as §1

[3] = target: T1, phi3T AimR receptor (Bacillus phage phi3T, UniProt P0DOE3); type: binding; settings: AimR 200 nM, peptide 9-4000 nM
T1 construct: made in house; host or cells: E. coli BL21(DE3), pET28a
T1 sequence (P0DOE3 whole entry, looked up): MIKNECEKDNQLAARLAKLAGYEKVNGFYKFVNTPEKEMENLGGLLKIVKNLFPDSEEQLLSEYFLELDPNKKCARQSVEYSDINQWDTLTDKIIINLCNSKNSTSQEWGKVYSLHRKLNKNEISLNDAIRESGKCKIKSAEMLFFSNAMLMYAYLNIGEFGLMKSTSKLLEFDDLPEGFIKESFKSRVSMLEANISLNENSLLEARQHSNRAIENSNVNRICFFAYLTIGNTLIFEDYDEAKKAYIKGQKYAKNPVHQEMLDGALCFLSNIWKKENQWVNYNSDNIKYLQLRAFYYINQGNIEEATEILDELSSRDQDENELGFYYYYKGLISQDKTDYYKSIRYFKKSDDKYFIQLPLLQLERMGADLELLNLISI
Description: Two-step purified 6×His-tagged AimR stored in Tris/NaCl buffer (50 mM Tris pH 8.0, 150 mM NaCl, 2 mM TCEP) at −80° C. was thawed on ice and centrifuged at 21,000 g for 10 minutes at 4° C. prior to analysis. Peptides [SAIRGA (SEQ ID NO: 269) and GMPRGA (SEQ ID NO: 271)] were solubilized in 50 mM Tris-HCl pH 8.0, 150 mM NaCl to a final concentration of 100 μM. AimR was diluted to 200 nM and was incubated with 16 different peptide concentrations varying between 9-4000 nM, which were prepared in Tris/NaCl buffer containing 0.1% [v/v] Pluronic acid (NanoTemper). Roughly 3 μl were loaded into NT.LabelFree Zero-Background Premium Coated Capillaries (NanoTemper) and inserted into a Monolith NT.LabelFree device (NanoTemper). MST experiments were performed at 60% MST power (infra-red laser) and 20% LED power at 23° C. using the Monolith NT.LabelFree instrument (Nanotemper). Ratios between normalized initial fluorescence and post-temperature-jump and thermophoresis were calculated and averaged from 3 independent runs (runs were incubated for 20 minutes at room temperature before the measurement). A plot of fluorescence ratios versus peptide concentration was used to assess the binding capacity of the phage protein and its cognate peptide ligand.

[4] = target: T2, AimR (Bacillus phage phi3T, UniProt P0DOE3); assay: Analytical gel filtration of purified AimR (oligomeric state); settings: AimR:SAIRGA 1:2, AimR:GMPRGA 1:1 molar ratio
T2 construct: made in house; host or cells: E. coli BL21(DE3), pET28a
T2 sequence (P0DOE3 whole entry, looked up): T1 sequence (P0DOE3 whole entry, looked up)
Description: Following, AimR was expressed in E. coli BL21(DE3) cells with a C-terminal 6× His-tag. Expression was performed at 15° C. for about ˜18 hours using 200 μM IPTG (Isopropyl β-D-1-thiogalactopyranoside) as an inducer. The cells pellet was resuspended in lysis buffer [50 mM Tris pH 8, 0.3M NaCl, 20 mM Imidazole, 2 mM DTT, 0.2 mg/ml Lysozyme, 1 μg/ml DNAse, protease inhibitor cocktail (Calbiochem)], disrupted by a cell disrupter at 4° C. and clarified at 15,000 g for 30 minutes. The clarified lysate was loaded onto a HisTrap_FF_5 ml column (GE Healthcare) and washed with buffer containing 50 mM Tris pH 8, 0.3 M NaCl, 20 mM imidazole and 2 mM DTT. AimR was eluted from the column in one step with the same buffer containing 0.5 M imidazole. Fractions containing AimR were pooled and injected to a size exclusion column (HiLoad_16/60_Superdex_200_prepgrade,GE_Healthcare) equilibrated with 20 mM Tris pH 8, 0.3 M NaCl, 2 mM TCEP. Fractions containing pure AimR were pooled and flash frozen in aliquots using liquid nitrogen.
Pure AimR was injected to an analytical gel filtration column (Superdex_200_Increase_10/30 GL, GE Healthcare) equilibrated with buffer containing 20 mM Tris pH 8, 0.3 M NaCl, 2 mM TCEP. […]

| Substance | effect on the phage infection dynamics (culture lysis, growth curve) [1] | effect on lysogeny / infection dynamics of spBeta [2] | specific binding to the phi3T AimR receptor (MST) [3] | AimR oligomeric state (migration in gel filtration column) [4] |
| --- | --- | --- | --- | --- |
| AIRGA: shorter, 5 amino acids version of the SAIRGA peptide | neither observed; also recorded: do not guide lysogeny |  |  |  |
| GMPRGA: predicted mature AimP-derived arbitrium peptide of spBeta | did not affect the lysogeny profile of phi3T | promoted lysogeny of spBeta | did not show specific binding | did not lead to a change in the AimR oligomeric state |
| PhrC: a known quorum sensing peptide of B. subtilis (ERGMT) | neither observed |  |  |  |
| SAIRG: shorter, 5 amino acids version of the SAIRGA peptide | neither observed; also recorded: do not guide lysogeny |  |  |  |
